Measured values from publication PMC6098951, “Design and synthesis of new esters of terpenoid alcohols as 15-lipoxygenase inhibitors” (Iranian Journal of Basic Medical Sciences, 2018).
Where two headings read alike, the source gives them in different places.

How the values were obtained:
[1] = target: T1, SLO (soybean 15-lipoxygenase: L1; EC 1,13,11,12) (Glycine max, UniProt P08170); test: 15-lipoxygenase inhibitory assessment (peroxide formation method); format: biochemical; conditions: for IC50: SLO
T1 sequence (P08170 1-839): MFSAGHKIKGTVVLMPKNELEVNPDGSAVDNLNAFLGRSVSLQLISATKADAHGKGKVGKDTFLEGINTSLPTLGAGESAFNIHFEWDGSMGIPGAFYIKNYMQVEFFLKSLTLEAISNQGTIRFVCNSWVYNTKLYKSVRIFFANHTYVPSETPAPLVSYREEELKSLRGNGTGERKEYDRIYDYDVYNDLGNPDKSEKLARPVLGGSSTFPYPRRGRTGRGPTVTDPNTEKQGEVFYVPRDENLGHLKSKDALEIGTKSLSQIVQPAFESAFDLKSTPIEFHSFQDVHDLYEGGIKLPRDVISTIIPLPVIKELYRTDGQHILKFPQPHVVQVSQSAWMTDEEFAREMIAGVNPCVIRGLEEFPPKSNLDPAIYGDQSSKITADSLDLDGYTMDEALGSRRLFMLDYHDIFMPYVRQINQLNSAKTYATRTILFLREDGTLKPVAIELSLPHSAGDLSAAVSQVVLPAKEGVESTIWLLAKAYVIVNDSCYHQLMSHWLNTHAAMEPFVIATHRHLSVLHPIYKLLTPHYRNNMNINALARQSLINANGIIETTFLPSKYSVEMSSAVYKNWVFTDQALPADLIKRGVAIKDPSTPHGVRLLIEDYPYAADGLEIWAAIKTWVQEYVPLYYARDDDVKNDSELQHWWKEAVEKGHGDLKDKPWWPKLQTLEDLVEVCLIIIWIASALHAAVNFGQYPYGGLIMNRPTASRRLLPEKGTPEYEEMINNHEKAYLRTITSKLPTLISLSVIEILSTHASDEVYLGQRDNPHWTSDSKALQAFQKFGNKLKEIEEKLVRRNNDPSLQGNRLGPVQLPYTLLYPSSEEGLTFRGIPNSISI
Procedure: Linoleic acid and two assay solutions (A and B) were prepared in advance. Solution A was 50 mM (3-dimethylaminobenzoic acid) (DMAB) in l00 mM phosphate buffer (pH 7.0). Solution B was a mixture of l0 mM (3-methyl-2-benzothiazolonhydrazone) (MBTH) (3 ml), hemoglobin (5 mg/ml, 3 ml) in 50 mM phosphate buffer at pH 5.0 (25 ml). A linoleic acid solution was prepared by mixing 5 mg of linoleic acid with 0.5 ml ethanol and then diluting with KOH 100 mM to a final volume of 5 ml. In the standard assay, the sample in ethanol (25 µl), SLO (4,000 units/ml in 50 mM phosphate buffer pH 7.0; 25 µl), and phosphate buffer pH 7.0 (50 mM; 900 µl) were mixed in a test tube, and pre-incubation was carried out for 5 min at room temperature. A control test was performed with the same volume of ethanol. After pre-incubation, linoleic acid solution (50 µl) was added to start the peroxidation reaction, and, 7 min later, solution A (270 µl) and then solution B (130 µl) were added to start the color formation. Further, 5 min later, 200 µl of a 2 % sodium dodecyl sulfate (SDS) solution was added to terminate the reaction. The absorbance at 598 nm was compared to control test.
The inhibitory activity of all synthetic compounds against SLO (soybean 15-lipoxygenase: L1; EC 1,13,11,12) was determined using the peroxide formation method ([13], [14]). In this method, the basis of evaluation of lipoxygenase activity is measuring the concentration of fatty acid peroxide. All measurements were compared with 4-methyl-2-(4-methylpiperazinyl)pyrimido[4,5-b]benzothiazine (4-MMPB), one of the known lipoxygenase inhibitors (Table 1).

[2] = DPPH bleaching (radical scavenging); conditions: 25 μM DPPH in ethanol, 30 min at room temperature, absorbance 517 nm; ± SEM
Procedure: DPPH solution (25 μM) in absolute ethanol was prepared. […] Ethanol was used as control solution. After 30 min at room temperature, the absorbance was recorded at 517 nm.
The radical scavenging ability of all synthetic compounds using stable free radicals (DPPH: 2,2-diphenyl-
1-picrylhydrazyl) has been previously measured (Table 1) ([15]). In this assessment, the DPPH bleaching potency of the synthetic compounds has been reported as IC50 values.

[3] = linoleic acid substrate, pH 7.0, absorbance 598 nm, ± SEM, read-out: Lipoxygenase inhibition IC50
[4] = read-out: IC50 inhibitory activity against soybean 15-lipoxygenase (abstract)

| Structure (SMILES) | IC50 [1, 3] | IC50 [2] | melting point | IC50 [1, 4] | fold less inhibitory potency versus 2b ([1]; lipoxygenase inhibition IC50 compared with 2b) |
| --- | --- | --- | --- | --- | --- |
| COc1cc(C(=O)O[C@H]2C3(C)CCC(C3)C2(C)C)ccc1O (stereo partly drawn) [2a, (2S)-1,3,3-trimethylbicyclo[2.2.1]heptan-2-yl 4-hydroxy-3-methoxybenzoate] | 40.1 ± 2.2 µM | > 500 µM | 120 to 122 °C | – | – |
| COc1ccc(C(=O)O[C@H]2C3(C)CCC(C3)C2(C)C)cc1OC (stereo partly drawn) [2d, (2S)-1,3,3-trimethylbicyclo[2.2.1]heptan-2-yl 3,4-dimethoxybenzoate] | > 500 µM | > 500 µM | – | – | – |
| CC12CCC(C1)C(C)(C)[C@H]2OC(=O)c1cc(O)c(O)c(O)c1 (stereo partly drawn) [2e, (2S)-1,3,3-trimethylbicyclo[2.2.1]heptan-2-yl 3,4,5-trihydroxybenzoate] | 1.71 ± 0.41 µM | 3.46 ± 0.33 µM | 171 to 173 °C | – | – |
| COc1cc(/C=C/C(=O)O[C@H]2C3(C)CCC(C3)C2(C)C)ccc1O (stereo partly drawn) [2f, (2S)-1,3,3-trimethylbicyclo[2.2.1]heptan-2-yl(E)-3-(4-hydroxy-3-methoxyphenyl)acrylate] | 194 ± 11.3 µM | > 500 µM | – | – | – |
| CC12CCC(C1)C(C)(C)[C@H]2OC(=O)/C=C/c1ccc(O)c(O)c1 (stereo partly drawn) [2g, (2S)-1,3,3-trimethylbicyclo[2.2.1]heptan-2-yl (E)-3-(3,4-dihydroxyphenyl)acrylate] | 1.67 ± 0.22 µM | 10.9 ± 1.1 µM | – | – | – |
| O=C(OC12CC3CC(CC(C3)C1)C2)c1cc(O)c(O)c(O)c1 [2k, (3s,5s,7s)-adamantan-1-yl 3,4,5-trihydroxybenzoate] | 2.28 ± 0.1 µM | 4.5 ± 0.19 µM | 195 to 199 °C | – | – |
| O=C(OCC12CC3CC(CC(C3)C1)C2)c1ccc(O)c(O)c1 [2m, (3r,5r,7r)-adamantan-1-yl)methyl 3,4-dihydroxybenzoate] | 3.57 ± 0.19 µM | 10.8 ± 0.67 µM | 212 to 217 °C | – | – |
| O=C(/C=C/c1ccc(O)c(O)c1)OCC12CC3CC(CC(C3)C1)C2 [2n, ((3r,5r,7r)-adamantan-1-yl)methyl(E)-3-(3,4-dihydroxyphenyl)acrylate] | 2.7 ± 0.13 µM | 5.98 ± 0.53 µM | 161 to 164 °C | – | – |
| CCOC(=O)c1ccc(O)c(O)c1 [2p, ethyl catechuate] | 6.5 ± 0.53 µM | 9.2 ± 0.45 µM | – | – | about 5 fold |
| COc1cc(/C=C/C(=O)NC23CC4CC(CC(C4)C2)C3)ccc1O [3b', (E)-N-((3s,5s,7s)-adamantan-1-yl)-3-(4-hydroxy-3-methoxyphenyl)acrylamide] | 188 ± 14 µM | 5.05 ± 4.08 µM | 130 to 132 °C | – | – |

Second part, led by results:

| IC50 [1, 3] | IC50 [2] | melting point | IC50 [1, 4] | Structure (SMILES) | fold less inhibitory potency versus 2b ([1]; lipoxygenase inhibition IC50 compared with 2b) |
| --- | --- | --- | --- | --- | --- |
| 1.68 ± 0.61 µM | 10 ± 1 µM | 58 to 61 °C | – | CC12CCC(C1)C(C)(C)[C@H]2OC(=O)c1ccc(O)c(O)c1 (stereo partly drawn) [2b, (2S)-1,3,3-trimethylbicyclo[2.2.1]heptan-2-yl 3,4-dihydroxybenzoate] | – |
| > 500 µM | > 500 µM | – | – | COc1cccc(C(=O)O[C@H]2C3(C)CCC(C3)C2(C)C)c1 (stereo partly drawn) [2c, (2S)-1,3,3-trimethylbicyclo[2.2.1]heptan-2-yl 3-methoxybenzoate] | – |
| 273 ± 11.3 µM | > 500 µM | – | – | COc1cc(C(=O)O[C@@H]2CC3CCC2(C)C3(C)C)ccc1O (stereo partly drawn) [2h, (2R)-1,7,7-trimethylbicyclo[2.2.1]heptan-2-yl 4-hydroxy-3-methoxybenzoate] | – |
| 164 ± 13.2 µM | > 500 µM | 136 to 139 °C | – | COc1cc(C(=O)OC23CC4CC(CC(C4)C2)C3)ccc1O [2i, (3s,5s,7s)-adamantan-1-yl 4-hydroxy-3-methoxy benzoate] | – |
| – | 9.1 ± 0.79 µM | 170 to 173 °C | 0.95 µM | O=C(OC12CC3CC(CC(C3)C1)C2)c1ccc(O)c(O)c1 [2j, (3s,5s,7s)-adamantan-1-yl 3,4-dihydroxybenzoate] | – |
| 3.9 ± 0.61 µM | 18 ± 1.9 µM | 191 to 196 °C | – | O=C(/C=C/c1ccc(O)c(O)c1)OC12CC3CC(CC(C3)C1)C2 [2l, (3s,5s,7s)-adamantan-1-yl (E)-3-(3,4-dihydroxyphenyl) acrylate] | – |
| – | 9.4 ± 0.81 µM | 40 to 42 °C | 0.78 µM | CC1(C)C2CCC1(C)[C@H](OC(=O)c1ccc(O)c(O)c1)C2 (stereo partly drawn) [2o, (2R)-1,7,7-trimethylbicyclo[2.2.1]heptan-2-yl 3,4-dihydroxybenzoate] | – |
| 5.4 ± 0.55 µM | 6.5 ± 0.43 µM | 209 to 211 °C | – | O=C(NC12CC3CC(CC(C3)C1)C2)c1ccc(O)c(O)c1 [3a', N-((3s,5s,7s)-adamantan-1-yl)-3,4-dihydroxybenzamide] | – |
| 38.5 ± 1.97 µM | 17.1 ± 2 µM | – | – | Cc1nc(N2CCN(C)CC2)nc2c1Sc1ccccc1N2 [4-MMPB, 4-methyl-2-(4-methylpiperazinyl)pyrimido[4,5-b]benzothiazine, reference compound] | – |
